Among the data in PMC7337102 (ACS infectious diseases, 2019) are kcat and Km values, retold here.

What is called kcat is the number of substrate molecules converted per active site and unit of time at saturation. The term Km denotes the substrate concentration at which the rate is half of its maximum.

In the assay the target is Eis_wt (Mycobacterium tuberculosis, UniProt P9WFK7). It counts as biochemical. As to conditions: KAN as substrate.
Eis_wt, sequence (P9WFK7 whole entry): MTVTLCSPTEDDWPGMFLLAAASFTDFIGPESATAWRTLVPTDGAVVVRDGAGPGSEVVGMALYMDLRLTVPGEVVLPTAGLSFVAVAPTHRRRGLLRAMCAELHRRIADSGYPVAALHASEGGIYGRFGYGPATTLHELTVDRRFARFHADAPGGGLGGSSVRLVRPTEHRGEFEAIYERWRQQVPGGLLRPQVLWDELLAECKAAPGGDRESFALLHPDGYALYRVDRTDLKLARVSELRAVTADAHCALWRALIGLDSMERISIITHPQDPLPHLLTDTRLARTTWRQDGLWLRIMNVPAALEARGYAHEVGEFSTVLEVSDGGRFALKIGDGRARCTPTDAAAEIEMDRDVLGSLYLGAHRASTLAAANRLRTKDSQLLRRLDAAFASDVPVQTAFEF

In the case of `NC[C@H]1O[C@H](O[C@H]2[C@H](O)[C@@H](O[C@H]3O[C@H](CO)[C@@H](O)[C@H](N)[C@H]3O)[C@H](N)C[C@@H]2N)[C@H](O)[C@@H](O)[C@@H]1O` [KAN, kanamycin], the turnover number (kcat) came out at 0.238 ± 0.0317 s⁻¹. Further, the Km (average for three sets of assays) is 551 ± 134 µM.
